Test results as given in ChEMBL document CHEMBL1201862, “PubChem BioAssay data set” (2004).
The source made the active and inactive calls. Non-standard residues stand in square brackets, D forms with d. Residues, ends and D or L forms follow the SMILES beside them. ξ: configuration not given here. *: point of attachment. Trx = NC[C@H]1CC[C@H](C(=O)O)CC1; Tic = O=C(O)[C@@H]1Cc2ccccc2CN1; Ile(3ξ) = CCC(C)[C@H](N)C(=O)O; Boc = CC(C)(C)OC(=O)*

Key:
[1] = molecular target: T1, Corticotropin-releasing factor receptor 2/Corticotropin-releasing factor-binding protein (Homo sapiens, UniProt P24387+Q13324); assay: Dose Response confirmation of uHTS hits for small molecule antagonists of the CRF-binding protein and CRF-R2 receptor complex.; type: functional; conditions: read-out: IC50_Mean
T1 sequence (Q13324 whole entry): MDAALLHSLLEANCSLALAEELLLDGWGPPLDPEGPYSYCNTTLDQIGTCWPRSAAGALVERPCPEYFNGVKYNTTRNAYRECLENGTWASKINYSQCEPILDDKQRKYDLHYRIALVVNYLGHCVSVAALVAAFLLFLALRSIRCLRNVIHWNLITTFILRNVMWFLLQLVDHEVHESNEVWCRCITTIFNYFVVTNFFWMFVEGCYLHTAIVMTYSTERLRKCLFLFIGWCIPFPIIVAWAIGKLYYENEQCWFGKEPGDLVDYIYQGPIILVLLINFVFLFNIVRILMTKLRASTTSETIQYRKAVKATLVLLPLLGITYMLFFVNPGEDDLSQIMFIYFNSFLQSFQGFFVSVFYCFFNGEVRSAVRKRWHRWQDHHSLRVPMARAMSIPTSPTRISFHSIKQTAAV
T1 sequence (P24387 whole entry): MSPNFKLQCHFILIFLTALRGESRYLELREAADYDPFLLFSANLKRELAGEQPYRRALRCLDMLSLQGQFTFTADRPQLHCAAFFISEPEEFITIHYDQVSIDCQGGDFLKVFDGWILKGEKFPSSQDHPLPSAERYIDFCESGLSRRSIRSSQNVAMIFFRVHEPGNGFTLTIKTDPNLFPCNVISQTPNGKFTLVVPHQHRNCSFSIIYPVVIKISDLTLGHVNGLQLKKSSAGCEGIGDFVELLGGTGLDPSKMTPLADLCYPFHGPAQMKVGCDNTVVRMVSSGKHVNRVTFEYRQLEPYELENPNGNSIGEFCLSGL

[2] = molecular target: T1, Corticotropin-releasing factor receptor 2/Corticotropin-releasing factor-binding protein; assay: activators of CRF receptor 2 with binding protein – uHTS hits, confirmation (AID 602473); type: functional; conditions: read-out: EC50_Mean
[3] = molecular target: T2, Carboxy-terminal domain RNA polymerase II polypeptide A small phosphatase 1 (Homo sapiens, UniProt Q9GZU7); assay: inhibitors of CTDSP1, concentration-response testing, biochemical assay, absorbance-based, actives from ultra-high-throughput screening (AID 540297); type: functional
T2 sequence (Q9GZU7 whole entry): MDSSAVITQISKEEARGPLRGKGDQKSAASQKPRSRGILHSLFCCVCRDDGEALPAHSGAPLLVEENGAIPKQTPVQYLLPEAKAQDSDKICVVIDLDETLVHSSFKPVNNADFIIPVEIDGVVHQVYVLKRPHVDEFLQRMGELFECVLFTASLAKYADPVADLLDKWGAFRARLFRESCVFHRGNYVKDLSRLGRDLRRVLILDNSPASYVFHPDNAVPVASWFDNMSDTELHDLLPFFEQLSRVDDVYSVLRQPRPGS

[4] = molecular target: T3, High affinity choline transporter 1 (Homo sapiens, UniProt Q9GZV3); assay: CHT inhibitors, dose response, cell-based, 5-point CRC, membrane potential dye (AID 504840); type: functional
T3 sequence (Q9GZV3 whole entry): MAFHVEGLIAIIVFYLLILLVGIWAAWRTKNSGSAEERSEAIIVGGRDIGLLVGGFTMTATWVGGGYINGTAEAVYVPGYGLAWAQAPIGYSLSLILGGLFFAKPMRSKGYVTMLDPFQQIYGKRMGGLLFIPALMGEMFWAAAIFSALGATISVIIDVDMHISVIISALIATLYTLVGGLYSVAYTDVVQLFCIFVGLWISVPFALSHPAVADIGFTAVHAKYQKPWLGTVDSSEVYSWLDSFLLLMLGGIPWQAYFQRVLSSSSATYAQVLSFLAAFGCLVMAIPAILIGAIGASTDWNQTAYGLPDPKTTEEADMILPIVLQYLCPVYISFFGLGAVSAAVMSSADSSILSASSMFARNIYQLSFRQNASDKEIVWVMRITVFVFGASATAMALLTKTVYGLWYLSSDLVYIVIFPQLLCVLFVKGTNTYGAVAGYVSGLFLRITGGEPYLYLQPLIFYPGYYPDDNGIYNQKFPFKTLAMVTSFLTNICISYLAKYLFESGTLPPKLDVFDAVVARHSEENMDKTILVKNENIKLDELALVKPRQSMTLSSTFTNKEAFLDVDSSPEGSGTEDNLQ

[5] = growth suppression of beta-catenin-knockout colon cells, dose response, cell-based, HCT116, human colon tumor (AID 1045); type: functional;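 note: HCT116 colon tumor cells with beta catenin knocked out; cells exposed to compound for 60 hours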
[6] = growth suppression of PTEN-null colon cells, dose response, cell-based, HCT116 PTEN knockout (AID 1047); type: functional;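 note: HCT116 colon tumor cells with PTEN knocked out; cells exposed to compound for 60 hours before readout; potency for loss of cell viability measured by luminescence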
[7] = HepG2 cell cytotoxicity, dose response, cytotoxicity control for Shn3 inhibitor project, CellTiter-Glo, cherry-picked (AID 624134); type: functional, cell-based
[8] = Shn3 3'UTR reporter inhibitors, dose response, cell-based, Clone20 osteoblasts, firefly luciferase, cherry-picked (AID 624132); type: functional;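 note: firefly luciferase luminescence from reporter carrying the Shn3 3'UTR in osteoblasts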
[9] = control 3'UTR Renilla luciferase suppression, dose response, counter-screen for Shn3 inhibitor project, cell-based, Clone20-Shn3RL, cherry-picked (AID 624133); type: functional
[10] = miR-122 activators in hepatoma reporter cells, dose response, cell-based, Huh7 psiCHECK-miR122, Renilla luciferase, cherry-picked (AID 651956); type: functional;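 note: huh7 hepatoma cells stably carrying a psiCHECK-2 miR-122 sensor plasmid; renilla luciferase signal reporting endogenous miR-122 activity after 48 h compound exposure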
[11] = molecular target: T4, DNA repair protein RAD52 homolog (Homo sapiens, UniProt P43351); type: functional, biochemical
T4 sequence (P43351 whole entry): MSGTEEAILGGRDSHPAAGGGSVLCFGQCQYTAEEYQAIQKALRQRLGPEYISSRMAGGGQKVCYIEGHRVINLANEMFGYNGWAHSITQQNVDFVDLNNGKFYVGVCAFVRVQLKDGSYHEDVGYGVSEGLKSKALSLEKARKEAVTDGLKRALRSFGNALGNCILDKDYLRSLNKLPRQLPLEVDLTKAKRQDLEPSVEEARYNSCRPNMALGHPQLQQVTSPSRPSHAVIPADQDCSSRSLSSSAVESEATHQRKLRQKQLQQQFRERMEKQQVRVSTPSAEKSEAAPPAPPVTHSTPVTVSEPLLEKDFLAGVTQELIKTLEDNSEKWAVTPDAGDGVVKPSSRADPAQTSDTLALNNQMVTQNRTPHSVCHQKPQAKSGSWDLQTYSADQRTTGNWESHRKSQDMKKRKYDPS

[12] = cytotoxicity toward NIH3T3 fibroblasts, dose response, counter-screen, cell-based, ATP luminescence, mouse fibroblasts (AID 2010); type: functional;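 note: cells exposed to compound for about 90 hours before reading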
[13] = inhibitors of intracellular T. cruzi replication, confirmation, NIH3T3 host cells, beta-gal luminescence (AID 2044); type: functional, cell-based;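 note: intracellular parasites grown in NIH/3T3 mouse fibroblasts as host cells; luminescent beta-galactosidase reporter signal from transgenic T. cruzi replicating inside host cells; inhibitors lower the luminescence signal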
[14] = NIH-3T3 fibroblast cytotoxicity, dose response, cytotoxicity control, cell-based, fluorescence, Alamar Blue, secondary assay (AID 2327); type: functional;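 note: NIH-3T3 mouse fibroblasts cultured with fluconazole at 8 µg/mL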
[15] = C. albicans growth with fluconazole, confirmation, fluorescence, retest (AID 2467); type: functional, cell-based

## COCCn1nnnc1C(c1ccccc1)N1CCN(c2ccccc2)CC1 (stereo not given)
[1]
  IC50: > 47.1 µM (inactive)
[2]
  EC50: > 53 µM (inactive)

## O=[N+]([O-])c1ccc2nc(-c3ccccc3)n(OCc3ccc(Cl)cc3)c2c1
[3]
  IC50: 10.1 µM (active)

## Cc1csc(=N)n1CC(=O)N1CCc2ccccc21
[4]
  IC50: 13.2 µM (active)

## CC(C)COc1nc2ccccc2nc1N1CCN(C)CC1
[4]
  IC50: 15.1 µM (active)

## CCOc1ccc2nc(O)c(CN(Cc3cccs3)C(CC)c3nnnn3C(C)(C)CC)cc2c1 (stereo not given)
[5]
  EC50: 5.11 µM (active)
[6]
  EC50: 4.69 µM (active)

## N=C(N)SCc1ccccn1
[4]
  IC50: 13.2 µM (active)

## COc1ccccc1N1CCN(C(=O)C2CCCN(S(=O)(=O)c3ccc4c(c3)CCCN4C(C)=O)C2)CC1 (stereo not given)
[7]
  AC50: 50.9 µM (active)
[8]
  AC50: 2.68 µM (active)
[9]
  AC50: 1.15 µM (active)

## CN1C(=O)c2cc(NS(=O)(=O)c3ccc(Cl)cc3)ccc2OC[C@H]2O[C@H](CC(=O)N3CCc4ccccc4C3)CC[C@@H]21
[10]
  AC50: 14.8 µM (active)

## Cc1ccn2c(=O)nc(SCC(=O)NCc3ccco3)nc2c1
[3]
  IC50: 10.8 µM (active)

## CCOc1ccc(C(=O)OCC(=O)Nc2cccnc2Cl)cc1OCC
[1]
  IC50: > 47.1 µM (inactive)
[2]
  EC50: > 53 µM (inactive)

## CSc1ccc(/C=N/NC(=O)c2cccc(Cl)c2)cc1
[3]
  IC50: 13.4 µM (active)

## CCCCN(C(=O)c1ccc2c(c1)S(=O)(=O)N=C1CCCCCN12)c1c(N)n(CCCC)c(=O)[nH]c1=O
[1]
  IC50: > 47.1 µM (inactive)
[2]
  EC50: > 53 µM (inactive)

## Nc1ccc(CC(N)c2csc(Nc3ncccn3)n2)cc1 (stereo not given)
[11]
  AC50: 19.2 µM (active)

## COc1cccc(-c2ccc3c(c2)O[C@H](CN(C)C(=O)C2CCOCC2)[C@H](C)CN([C@@H](C)CO)S3(=O)=O)c1
[10]
  AC50: 6.42 µM (active)

## O=C(O)c1cccc2c1C(=O)N(c1ccc3c(c1)Cc1ccccc1-3)C2=O
[3]
  IC50: 7.59 µM (active)

## CCOC(=O)N1CCN(C(=O)c2oc3ccc(S(=O)(=O)N4CCCCCC4)cc3c2C)CC1
[4]
  IC50: 13.2 µM (active)
[12]
  EC50: > 60 µM (not active)
[13]
  EC50: 2.02 µM (active)

## CC(C)(C)NC(=O)C(c1ccc(O)cc1)N(Cc1ccc2c(c1)OCO2)C(=O)CCl (stereo not given)
[1]
  IC50: > 47.1 µM (inactive)
[2]
  EC50: > 53 µM (inactive)

## O=C(NCCCO)C(=O)Nc1cc2c3c(c1)CCN3C(=O)CC2
[1]
  IC50: > 47.1 µM (inactive)
[2]
  EC50: > 53 µM (inactive)

## C[C@@H]1CN([C@H](C)CO)S(=O)(=O)c2ccc(C3=CCCCC3)cc2O[C@@H]1CN(C)C(=O)Cc1ccncc1
[10]
  AC50: 8.26 µM (active)

## O=C(N/N=C/c1ccccc1OC(=O)c1ccc2c(c1)OCO2)c1ccccc1
[5]
  EC50: 18.9 µM (active)
[6]
  EC50: 20.9 µM (active)

## COc1ccc(NC(=O)C(C)Sc2nnc3c4c(nc(-c5ccc(OC)cc5)n23)CC(C)(C)OC4)cc1 (stereo not given)
[5]
  EC50: 58.9 µM (active)
[6]
  EC50: 27 µM (active)

## Cc1ccc(S(=O)(=O)N2C[C@@H]3CCCC[C@@H]3[C@@H](C)[C@H]2c2cn(Cc3ccccc3)c3ncccc23)cc1
[7]
  AC50: 2.47 µM (active)
[8]
  AC50: 1.92 µM (active)
[9]
  AC50: 4.12 µM (active)

## O=C(Nc1ccccc1C(F)(F)F)NC1(C(=O)N2CCOCC2)CCCCC1
[3]
  IC50: 4.66 µM (active)

## O=C(c1cccc(NS(=O)(=O)c2ccc(F)c(F)c2)c1)N1CCN(C(c2ccccc2)c2ccccc2)CC1
[1]
  IC50: > 47.1 µM (inactive)
[2]
  EC50: > 53 µM (inactive)

## Cc1cc(N2CCC(N(C)C3CCCC3)CC2)nc2cc(O)ccc12
[11]
  AC50: 11.3 µM (active)

## CCC(C)[C@H](NC(=O)[C@@H]1Cc2ccccc2CN1C(=O)OC(C)(C)C)C(=O)NC[C@H]1CC[C@H](C(=O)O)CC1 (stereo not given in full) (Boc-[Tic]-[Ile(3ξ)]-[Trx]-OH)
[1]
  IC50: > 47.1 µM (inactive)
[2]
  EC50: > 53 µM (inactive)

## O=C(NNC(=O)C1CCN(S(=O)(=O)c2ccc(Cl)cc2)CC1)c1ccccc1O
[7]
  AC50: 63.1 µM (active)
[8]
  AC50: 18.5 µM (active)
[9]
  AC50: 6.86 µM (active)

## O=C(CC(CC(=O)c1ccccc1)c1ccncc1)c1ccccc1
[1]
  IC50: > 47.1 µM (inactive)
[2]
  EC50: > 53 µM (inactive)

## CC(C)C[C@@H](CN1CCCC1CN1C(=S)NC[C@@H]1Cc1ccc(O)cc1)N1C[C@H](Cc2ccc(O)cc2)N(CC2CCCCCC2)C1=S (stereo not given in full)
[7]
  AC50: 22.7 µM (active)
[8]
  AC50: 18.8 µM (active)
[9]
  AC50: 16.9 µM (active)

## O=C(N/N=C/c1cc(Cl)cc([N+](=O)[O-])c1O)c1cc(-c2ccccn2)nc2ccccc12
[3]
  IC50: 1.85 µM (active)

## CCc1ccc(N2C(=O)NC(=O)/C(=C\NCCN(CC)CC)C2=O)cc1
[8]
  AC50: > 70 µM (inactive)
[9]
  AC50: 27.8 µM (active)

## Cc1ccc(-c2ccc3c(c2)O[C@H](CN(C)C(=O)CC2CC2)[C@H](C)CN([C@H](C)CO)S3(=O)=O)cc1
[10]
  AC50: 10.7 µM (active)

## Cc1ccc(Cl)cc1NC(=O)CSc1sc2c(O)cc(O)nc2c1C#N
[3]
  IC50: 4.49 µM (active)

## Cc1ccc(C2CC2C(=O)NN=C(S)Nc2cccc(Cl)c2)cc1 (stereo not given)
[4]
  IC50: 15.8 µM (active)
[14]
  EC50: > 160 µM (inactive)
[15]
  EC50: > 38 µM (not active)

## C[C@@H]1CN([C@@H](C)CO)C(=O)c2cc(NC(=O)Nc3cccc4ccccc34)ccc2O[C@@H](C)CCCCO[C@H]1CN(C)CC1CCCCC1
[10]
  AC50: 8.95 µM (active)

## O=C(O)CCNc1ccc(Cl)cc1
[3]
  IC50: 16.9 µM (active)
